Results from US8841339B2, “Synergistic antifouling compositions comprising 4-bromo-2-(4-chlorophenyl)-5-(trifluoromethyl)-1H-pyrrole-3-carbonitrile” (Janssen Pharmaceutica N.V., priority 2001, dated 2014).
Marks after values point to notes of the source that are not given here.

What was measured:
[1] = tested on: Chlorella vulgaris (CCAP 211/12); assay: Poison plate assay in 96 multi-well plates, algae growth; format: cell-based; conditions: single active ingredient, incubation time 18 days
Method: (§1) Activity against algae growth was determined with the poison plate assay. A calculated amount of a stock solution (containing either 4-bromo-2-(4-chlorophenyl)-5-(trifluoromethyl)-1H-pyrrole-3-carbonitrile, bethoxazin, DCOIT, dichlofluanide, or tolylfluanide in DMSO) was pipetted into multiwell plates in order to reach a final test concentration ranging from 0.05 to 100 ppm and mixed with a warm culture medium. The medium was inoculated with 300 μl of an algal suspension. The multi-well plates were kept at 21° C., a relative humidity of 65% and light-dark cycle of 16 hours a day (1000 Lux photoperiod).
(§2) The lowest concentration of each test compound or mixture of test compounds sufficient to inhibit visible growth was taken as the minimum inhibitory concentration (MIC). The MIC were taken as end points of activity. End points for the combinations of component (I) with one of the components (II) were then compared with the end points for the pure active test compound when employed individually.
(§3) Synergism between component (I) and one of the components (II) was determined by a commonly used and accepted method described by Kull F. C. et al. in Applied Microbiology, 9, 538-541 (1961) using the Synergy Index, which is calculated as follows for two compounds A and B:
(§4) [formula] wherein: • QA is the concentration of compound A in ppm, acting alone, which produced an end point (e.g. MIC), • Qa is the concentration of compound A in ppm, in the mixture, which produced an end point (e.g. MIC), • QB is the concentration of compound B in ppm, acting alone, which produced an end point (e.g. MIC), • Qb is the concentration of compound B in ppm, in the mixture, which produced an end point (e.g. MIC).
(§5) When the Synergy Index is greater than 1.0, antagonism is indicated. When the SI is equal to 1.0, additivity is indicated.

[2] = tested on: Stichococcus bacillaris (CCAP 379/1A); assay: as above; format: cell-based; conditions: single active ingredient, incubation time 18 days
Method: as §1, §2, §3, §4, §5

| Structure (SMILES) | MIC-values (minimum inhibitory concentration) [1] | MIC-values (minimum inhibitory concentration) [2] |
| --- | --- | --- |
| CCCCCCCCn1sc(Cl)c(Cl)c1=O [component (II-d), 4,5-dichloro-2-(n-octyl)-3(2H)-isothiazolone] | 1.6 ppm | 1.6 ppm |
| Cc1ccc(N(SC(F)(Cl)Cl)S(=O)(=O)N(C)C)cc1 [component (II-b), 1,1-dichloro-N-[(dimethylamino)sulfonyl]-1-fluoro-N-(4-methylphenyl)-methanesulfenamide] | 25 ppm | 12.5 ppm |
| [O-][S+]1CCON=C1c1cc2ccccc2s1 (stereo not shown) [component (II-a), 3-(benzo[b]thien-2-yl)-5,6-dihydro-1,4,2-oxathiazine 4-oxide] | 1.6 ppm | 6.2 ppm |
| N#Cc1c(-c2ccc(Cl)cc2)[nH]c(C(F)(F)F)c1Br [component (I), 4-bromo-2-(4-chlorophenyl)-5-(trifluoromethyl)-1H-pyrrole-3-carbonitrile] | > 100* ppm | > 100* ppm |
| CN(C)S(=O)(=O)N(SC(F)(Cl)Cl)c1ccccc1 [component (II-c), 1,1-dichloro-N-[(dimethylamino)sulfonyl]-1-fluoro-N-phenyl-methanesulfenamide] | 25 ppm | 25 ppm |
